A short description of data set [1]: Pharmacokinetic studies in plasma and brain of mice after i.p. injection. Type of data set: in vivo, mouse. The note with it: for Cmax (mean ± SEM) Brain / B:P ratio (brain to plasma AUC ratio) / t1/2 Brain (terminal half-life) / t1/2 Plasma (terminal half-life) / Brain level at 4 h post-treatment: i.p. 5 mg/kg; for Cmax (mean ± SEM) Brain: normalized to free base dose; for Sex-dependent difference: Brain Total exposure (AUC) / Sex-dependent difference: Plasma Total exposure (AUC): standard t-test, F female, M male, NS not statistically different; for Brain level at 4 h post-treatment: LLOQ 5.0 ng/ml.

Data set [2] addresses N-methyl-D-aspartate receptor (NMDAR). The following applies: read-out: NMDAR binding affinity; ref [31]; cited from earlier work.
Data set [3] relates to male mice. In words: Forced swim test immobility time 24 h after i.p. treatment. The class given is in vivo, mouse.

Where only a bound is given, the exact number is not on record here.

As for `N[C@@]1(c2ccccc2Cl)C[C@H](O)CCC1=O` [(2R,4R)-HNK], the “Cmax (mean ± SEM) Brain” value in data set [1] (female CD-1 mice) is reported as 490 ± 26.4 ng/g•mg/kg. In data set [1] (female mice), the “B:P ratio (brain to plasma AUC ratio)” value is 1.2, the “t1/2 Brain (terminal half-life)” value worked out at 29 min and the “t1/2 Plasma (terminal half-life)” value came out at 29 min. The “Cmax (mean ± SEM) Brain” value in data set [1] (male CD-1 mice) stood at 431 ± 43.5 ng/g•mg/kg. Further, in data set [1] (male mice), the “B:P ratio (brain to plasma AUC ratio)” value is 1.3, the “t1/2 Brain (terminal half-life)” value is on record as 38 min and the “t1/2 Plasma (terminal half-life)” value is on record as 35 min. In addition, in data set [1], the “Sex-dependent difference: Brain Total exposure (AUC)” value is “M > F” and the “Sex-dependent difference: Plasma Total exposure (AUC)” value is “M > F”.

As for `N[C@@]1(c2ccccc2Cl)C[C@@H](O)CCC1=O` [(2R,4S)-HNK], in data set [1] (female CD-1 mice), the “Cmax (mean ± SEM) Brain” value was 495 ± 28.7 ng/g•mg/kg. In data set [1] (female mice), the “B:P ratio (brain to plasma AUC ratio)” value is given as 1.0, the “t1/2 Brain (terminal half-life)” value is reported as 15 min and the “t1/2 Plasma (terminal half-life)” value was 44 min. Also, the “Brain level at 4 h post-treatment” value in data set [1] (females, but not males) was “below LLOQs”. The “Cmax (mean ± SEM) Brain” value in data set [1] (male CD-1 mice) is 758 ± 21.4 ng/g•mg/kg. In addition, in data set [1] (male mice), the “B:P ratio (brain to plasma AUC ratio)” value worked out at 1.1, the “t1/2 Brain (terminal half-life)” value was determined as 32 min and the “t1/2 Plasma (terminal half-life)” value turned out to be 39 min. In addition, in data set [1], the “Sex-dependent difference: Brain Total exposure (AUC)” value is recorded as “M > F” and the “Sex-dependent difference: Plasma Total exposure (AUC)” value is on record as “M > F”.

With `N[C@@]1(c2ccccc2Cl)CC[C@@H](O)CC1=O` [(2R,5R)-HNK], the “Cmax (mean ± SEM) Brain” value in data set [1] (female CD-1 mice) was 152 ± 8.8 ng/g•mg/kg. In addition, in data set [1] (female mice), the “B:P ratio (brain to plasma AUC ratio)” value came to 1.4, the “t1/2 Brain (terminal half-life)” value was determined as 28 min and the “t1/2 Plasma (terminal half-life)” value was determined as 31 min. Also, in data set [1] (male CD-1 mice), the “Cmax (mean ± SEM) Brain” value was 142 ± 5.6 ng/g•mg/kg. Further, in data set [1] (male mice), the “B:P ratio (brain to plasma AUC ratio)” value is listed as 1.2, the “t1/2 Brain (terminal half-life)” value is 27 min and the “t1/2 Plasma (terminal half-life)” value is 30 min. Besides, the “Sex-dependent difference: Plasma Total exposure (AUC)” value in data set [1] is “M > F”.

Consider `N[C@@]1(c2ccccc2Cl)CC[C@H](O)CC1=O` [(2R,5S)-HNK], for which the “Cmax (mean ± SEM) Brain” value in data set [1] (female CD-1 mice) is 154 ± 3.9 ng/g•mg/kg. For the same compound, in data set [1] (female mice), the “B:P ratio (brain to plasma AUC ratio)” value turned out to be 1.0, the “t1/2 Brain (terminal half-life)” value came to 27 min and the “t1/2 Plasma (terminal half-life)” value worked out at 29 min. In data set [1] (male CD-1 mice), the “Cmax (mean ± SEM) Brain” value is on record as 106 ± 6.8 ng/g•mg/kg. In data set [1] (male mice), the “B:P ratio (brain to plasma AUC ratio)” value is 0.9, the “t1/2 Brain (terminal half-life)” value came out at 27 min and the “t1/2 Plasma (terminal half-life)” value worked out at 28 min. Further, in data set [1], the “Sex-dependent difference: Brain Total exposure (AUC)” value is reported as “F > M” and the “Sex-dependent difference: Plasma Total exposure (AUC)” value is on record as “F > M”.

For `N[C@@]1(c2ccccc2Cl)CCC[C@H](O)C1=O` [(2R,6S)-HNK], the Ki in data set [2] was > 100 µM. In addition, the “Minimal effective dose to reduce immobility time in the forced swim test” value in data set [3] (24 h after injection) came out at 1 mg/kg. Further, in data set [3] (tested range up to 100 mg/kg), the “Shape of dose response curve for forced swim test immobility” value was “U-shaped dose response curves”. Besides, in data set [1] (female CD-1 mice), the “Cmax (mean ± SEM) Brain” value worked out at 166 ± 12.3 ng/g•mg/kg. Further, in data set [1] (female mice), the “B:P ratio (brain to plasma AUC ratio)” value was found to be 0.7, the “t1/2 Brain (terminal half-life)” value was 23 min and the “t1/2 Plasma (terminal half-life)” value came out at 47 min. Also, the “Brain level at 4 h post-treatment” value in data set [1] (females, but not males) is given as “below LLOQs”. Also, in data set [1] (from Table 1), the “Brain Cmax and AUC compared to equivalent dosing with (2R,6R)-HNK” value was “approximately two-fold lower”. In addition, the “Cmax (mean ± SEM) Brain” value in data set [1] (male CD-1 mice) is recorded as 173 ± 5.4 ng/g•mg/kg. Moreover, in data set [1] (male mice), the “B:P ratio (brain to plasma AUC ratio)” value worked out at 0.6, the “t1/2 Brain (terminal half-life)” value is given as 43 min and the “t1/2 Plasma (terminal half-life)” value turned out to be 55 min. Further, in data set [1], the “Sex-dependent difference: Brain Total exposure (AUC)” value is listed as “M > F” and the “Sex-dependent difference: Plasma Total exposure (AUC)” value is reported as “M > F”.

`N[C@]1(c2ccccc2Cl)C[C@H](O)CCC1=O` [(2S,4R)-HNK]: the “Brain level at 4 h post-treatment” value in data set [1] (both sexes) is “below LLOQs”. Further, the “Cmax (mean ± SEM) Brain” value in data set [1] (female CD-1 mice) is given as 190± 13.7 ng/g•mg/kg. Besides, in data set [1] (female mice), the “B:P ratio (brain to plasma AUC ratio)” value was determined as 1.0, the “t1/2 Brain (terminal half-life)” value is listed as 21 min and the “t1/2 Plasma (terminal half-life)” value came out at 47 min. For the same compound, in data set [1] (male CD-1 mice), the “Cmax (mean ± SEM) Brain” value is 160 ± 10.2 ng/g•mg/kg. In data set [1] (male mice), the “B:P ratio (brain to plasma AUC ratio)” value was determined as 0.9, the “t1/2 Brain (terminal half-life)” value worked out at 23 min and the “t1/2 Plasma (terminal half-life)” value came out at 48 min.

(Values after paper PMC9926475 (ACS chemical neuroscience, 2022).)
